ChEMBL document CHEMBL3508693 (2016)
Blank lines part the entries; values can stand above or below the compound they belong to.

Tests used:
[1] = % aliskiren recovered as M2 from M3 in urine following single intravenous administration of 10 mg.Kg-1 [14C] aliskiren hemifumarate in male rat; assay type: ADME, organism-based, HAN:WIST(SPF); settings: in vivo
[2] = % aliskiren recovered as M2 from M3 in bile following single intravenous administration of 10 mg.Kg-1 [14C] aliskiren hemifumarate in male rat; assay type: ADME, organism-based, HAN:WIST(SPF); settings: in vivo
[3] = % aliskiren hemifumarate recovered as M2 from M3 in urine and faeces following single oral dose of 300 mg [14C]SPP100 studied in healthy men; assay type: ADME, organism-based, Urine/Feces; settings: human, in vivo, at 300 mg
[4] = % of radioactivity recovered as M2 from M3 in faeces following oral administration of [14C] aliskiren hemifumarate at 100 mg.Kg-1 level in rat; assay type: ADME, organism-based, Albino HAN:WIST, Feces; settings: in vivo
[5] = % of radioactivity recovered as M2 from M3 in urine following intravenous administration of [14C] aliskiren hemifumarate at 10 mg.Kg-1 level in rat; assay type: ADME, organism-based, Albino HAN:WIST; settings: in vivo
[6] = % aliskiren hemifumarate (0-72h) recovered as M2 from M3 in faeces following single intravenous dose of [14C] aliskiren hemifumarate at 1 mg.Kg-1 level in marmoset; assay type: ADME, organism-based, Callithrix jacchus, Feces; settings: in vivo
[7] = % aliskiren hemifumarate (0-72h) recovered as M2 from M3 in faeces following single oral dose of [14C] aliskiren hemifumarate at 3 mg.Kg-1 level in marmoset; assay type: ADME, organism-based, Callithrix jacchus, Feces; settings: in vivo
[8] = % of radioactivity recovered as M2 from M3 in faeces following intravenous administration of [14C] aliskiren hemifumarate at 10 mg.Kg-1 level in rat; assay type: ADME, organism-based, Albino HAN:WIST, Feces; settings: in vivo
[9] = % aliskiren hemifumarate recovered as M2 from M3 in faeces following single oral dose of 300 mg [14C]SPP100 studied in healthy men; assay type: ADME, organism-based, Feces; settings: human, in vivo, at 300 mg
[10] = % aliskiren hemifumarate recovered as M2 from M3 in urine following single oral dose of 300 mg [14C]SPP100 studied in healthy men; assay type: ADME, organism-based; settings: human, in vivo, at 300 mg
[11] = % of radioactivity recovered as M2 from M3 in plasma following intravenous administration of [14C] aliskiren hemifumarate at 10 mg.Kg-1 level in rat; assay type: ADME, organism-based, Albino HAN:WIST; settings: in vivo
[12] = % aliskiren recovered as M2 from M3 in hydrolysed following single intravenous administration of 10 mg.Kg-1 [14C] aliskiren hemifumarate in male rat; assay type: ADME, organism-based, HAN:WIST(SPF), Bile; settings: in vivo
[13] = % aliskiren hemifumarate (0-168h) recovered as M2 from M3 in urine following single oral dose of [14C] aliskiren hemifumarate at 3 mg.Kg-1 level in marmoset; assay type: ADME, organism-based, Callithrix jacchus; settings: in vivo
[14] = % aliskiren hemifumarate (0-168h) recovered as M2 from M3 in urine following single intravenous dose of [14C] aliskiren hemifumarate at 1 mg.Kg-1 level in marmoset; assay type: ADME, organism-based, Callithrix jacchus; settings: in vivo
[15] = % aliskiren recovered as metabolite M2 in urine following 10 day repeated oral administration of [14C] aliskiren hemifumarate at 100 mg.Kg-1 level studied in rat; assay type: ADME, organism-based, Albino HAN:WIST; settings: in vivo, 240 h
[16] = % aliskiren recovered as M2 from M3 of receiver rat following duodenal infusion of radioactivity through bile from donor rat treated with single intravenous administration of 10 mg.Kg-1 [14C] aliskiren hemifumarate; assay type: ADME, organism-based, HAN:WIST(SPF); settings: in vivo
[17] = % of radioactivity recovered as M2 from M3 in urine following oral administration of [14C] aliskiren hemifumarate at 100 mg.Kg-1 level in rat; assay type: ADME, organism-based, Albino HAN:WIST; settings: in vivo
[18] = % aliskiren recovered as metabolite M2 in plasma following 10 day repeated oral administration of [14C] aliskiren hemifumarate at 100 mg.Kg-1 level studied in rat; assay type: ADME, organism-based, Albino HAN:WIST; settings: in vivo, 240 h
[19] = % aliskiren recovered as metabolite M2 in faeces following 10 day repeated oral administration of [14C] aliskiren hemifumarate at 100 mg.Kg-1 level studied in rat; assay type: ADME, organism-based, Albino HAN:WIST, Feces; settings: in vivo, 240 h
[20] = % of radioactivity recovered as M2 from M3 in plasma following oral administration of [14C] aliskiren hemifumarate at 100 mg.Kg-1 level in rat; assay type: ADME, organism-based, Albino HAN:WIST; settings: in vivo
[21] = % aliskiren hemifumarate recovered as M1 in urine following single oral dose of 300 mg [14C]SPP100 studied in healthy men; assay type: ADME, organism-based; settings: human, in vivo
[22] = % of radioactivity recovered as M1 in plasma following oral administration of [14C] aliskiren hemifumarate at 100 mg.Kg-1 level in rat; assay type: ADME, organism-based, Albino HAN:WIST; settings: in vivo
[23] = % aliskiren hemifumarate recovered as M1 in faeces following single oral dose of 300 mg [14C]SPP100 studied in healthy men; assay type: ADME, organism-based, Feces; settings: human, in vivo, at 300 mg
[24] = % aliskiren recovered as M1 in hydrolysed following single intravenous administration of 10 mg.Kg-1 [14C] aliskiren hemifumarate in male rat; assay type: ADME, organism-based, HAN:WIST(SPF), Bile; settings: in vivo
[25] = % aliskiren recovered as M1 in urine following single intravenous administration of 10 mg.Kg-1 [14C] aliskiren hemifumarate in male rat; assay type: ADME, organism-based, HAN:WIST(SPF); settings: in vivo
[26] = % aliskiren recovered as M1 of receiver rat following duodenal infusion of radioactivity through bile from donor rat treated with single intravenous administration of 10 mg.Kg-1 [14C] aliskiren hemifumarate; assay type: ADME, organism-based, HAN:WIST(SPF); settings: in vivo
[27] = % of radioactivity recovered as M1 in faeces following oral administration of [14C] aliskiren hemifumarate at 100 mg.Kg-1 level in rat; assay type: ADME, organism-based, Albino HAN:WIST, Feces; settings: in vivo
[28] = % of radioactivity recovered as M1 in urine following oral administration of [14C] aliskiren hemifumarate at 100 mg.Kg-1 level in rat; assay type: ADME, organism-based, Albino HAN:WIST; settings: in vivo
[29] = % aliskiren hemifumarate recovered as M1 in urine and faeces following single oral dose of 300 mg [14C]SPP100 studied in healthy men; assay type: ADME, organism-based, Urine/Feces; settings: human, in vivo, at 300 mg
[30] = % of radioactivity recovered as M1 in plasma following intravenous administration of [14C] aliskiren hemifumarate at 10 mg.Kg-1 level in rat; assay type: ADME, organism-based, Albino HAN:WIST; settings: in vivo
[31] = % of radioactivity recovered as M1 in faeces following intravenous administration of [14C] aliskiren hemifumarate at 10 mg.Kg-1 level in rat; assay type: ADME, organism-based, Albino HAN:WIST, Feces; settings: in vivo
[32] = % aliskiren recovered as M1 in bile following single intravenous administration of 10 mg.Kg-1 [14C] aliskiren hemifumarate in male rat; assay type: ADME, organism-based, HAN:WIST(SPF); settings: in vivo
[33] = % of radioactivity recovered as M1 in urine following intravenous administration of [14C] aliskiren hemifumarate at 10 mg.Kg-1 level in rat; assay type: ADME, organism-based, Albino HAN:WIST; settings: in vivo

Compound recovery [1]: 2.9%
Compound recovery [2]: 7.4%
Compound recovery [3]: 0.6%
Compound recovery [4]: <= 2%
Compound recovery [5]: <= 2%
Compound recovery [6]: 6%
Compound recovery [7]: 2%
Compound recovery [8]: > 2%
Compound recovery [9]: 0.5%
Compound recovery [10]: < 0.1%
Compound recovery [11]: <= 2%
Compound recovery [12]: 10.2%
Compound recovery [13]: 0.1%
Compound recovery [14]: 0.1%
Compound recovery [16]: 15.4%
Compound recovery [17]: <= 2%
Compound recovery [20]: <= 2%
Structure (SMILES): COc1ccc(C[C@@H](C[C@H](N)[C@@H](O)C[C@H](C(=O)NCC(C)(C)C(N)=O)C(C)C)C(C)C)cc1OCCC(=O)O
Compound recovery [15]: OUTCOME = Observed, VALUE = Minor amounts
Compound recovery [18]: OUTCOME = Observed, VALUE = Minor amounts
Compound recovery [19]: OUTCOME = Observed, VALUE = Minor amounts

Compound recovery [21]: OUTCOME = Not detected
Compound recovery [23]: 0.1%
Compound recovery [24]: 2.8%
Compound recovery [25]: 0.8%
Compound recovery [26]: OUTCOME = Not detected
Compound recovery [27]: <= 2%
Compound recovery [28]: <= 2%
Compound recovery [29]: 0.1%
Compound recovery [31]: > 2%
Compound recovery [32]: 1.3%
Compound recovery [33]: <= 2%
Structure (SMILES): COCCCOc1cc(C[C@@H](C[C@H](N)[C@@H](O)C[C@H](C(=O)NCC(C)(C)C(N)=O)C(C)C)C(C)C)ccc1O
Compound recovery [22]: OUTCOME = Not detected or not investigated
Compound recovery [30]: OUTCOME = Not detected or not investigated
